Data: patent US9029391B2 (priority 2011, dated 2015)
Read-outs that look alike come from different tables or passages of the source.

System: HIV
Test: MT4 Assay (anti-HIV activity)
Format: cell-based
Summary of the method: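 MT-4 cells (HTLV-1 transformed) were used for antiviral activity and cytotoxicity, run in parallel, with luminescence read by CellTiter-Glo 96 hours later. Percent inhibition was expressed against the no-compound control. IC50s came from 10-point curves of 3-4-fold serial dilutions spanning >1000-fold.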

[1] = Human immunodeficiency virus 1, 96 h, read-out: HIV MT4 Assay IC50, HTLV-1 transformed cell line MT-4, cell titer glo, 10 point dose response curve

SMILES	IC50 [1]	IC50 (read-out: HIV MT4 Assay IC50, HTLV-1 transformed cell line MT-4, 96 hours, cell titer glo, 10 point dose response curve)
COc1ccc(-c2ccc3c(-c4cc(F)c5c(c4C)CCCO5)c([C@H](OC(C)(C)C)C(=O)O)n(C)c(=O)c3c2)cn1 (atropisomer, axis not shown; (M)) [Example 198, (2S)(M)-[(1,1-dimethylethyl)oxy]{4-(8-fluoro-5-methyl-3,4-dihydro-2H-chromen-6-yl)-2-methyl-7-[6-(methyloxy)-3-pyridinyl]-1-oxo-1,2-dihydro-3-isoquinolinyl}ethanoic acid]	40 nM	
Cn1c(C(OC(C)(C)C)C(=O)O)c(-c2ccc3c(c2)CCC3)c2ccccc2c1=O (centres unmarked) [Example 152, 2-(tert-butoxy)-2-(4-(2,3-dihydro-1H-inden-5-yl)-2-methyl-1-oxo-1,2-dihydroisoquinolin-3-yl)acetic acid]	430 nM	
Cc1ccc(-c2c(C(OC(C)(C)C)C(=O)O)n(C)c(=O)c3cc(CNCc4ccc5c(-c6ccc(C)c(C)c6)c(C(OC(C)(C)C)C(=O)O)n(C)c(=O)c5c4)ccc23)cc1C (centres unmarked) [Example 180, 2,2′-(iminobis{methanediyl[4-(3,4-dimethylphenyl)-2-methyl-1-oxo-1,2-dihydroisoquinoline-7,3-diyl]})bis{[(1,1-dimethylethyl)oxy]acetic acid}]	12400 nM	
Cc1c(-c2c(C(OC(C)(C)C)C(=O)O)n(C)c(=O)c3cc(OCc4ccc(S(C)(=O)=O)cc4)ccc23)ccc2c1CCCO2 (centres unmarked) [Example 128, 2-(tert-butoxy)-2-{7-[(4-methanesulfonylphenyl)-methoxy]-2-methyl-4-(5-methyl-3,4-dihydro-2H-1-benzopyran-6-yl)-1-oxo-1,2-dihydroisoquinolin-3-yl}acetic acid]	380 nM	
COc1ccc(-c2c(C(OC(C)(C)C)C(=O)O)n(C)c(=O)c3ccccc23)cc1C (centres unmarked) [Example 54, 2-(tert-butoxy)-2-[4-(4-methoxy-3-methylphenyl)-2-methyl-1-oxo-1,2-dihydroisoquinolin-3-yl]acetic acid]	12300 nM	
Cc1c(-c2c(C(OC(C)(C)C)C(=O)O)n(C)c(=O)c3cc(Cl)ccc23)ccc2c1CCCO2 (centres unmarked) [Example 79, 2-(tert-butoxy)-2-[7-chloro-2-methyl-4-(5-methyl-3,4-dihydro-2H-1-benzopyran-6-yl)-1-oxo-1,2-dihydroisoquinolin-3-yl]acetic acid]	200 nM	
COc1ccc2c(-c3ccc4c(c3)CCCO4)c(C(OC(C)(C)C)C(=O)O)n(C)c(=O)c2c1 (centres unmarked) [Example 72, 2-(tert-butoxy)-2-[4-(3,4-dihydro-2H-1-benzopyran-6-yl)-7-methoxy-2-methyl-1-oxo-1,2-dihydroisoquinolin-3-yl]acetic acid]	400 nM	
Cc1ccc(-c2c(C(OC(C)(C)C)C(=O)O)n(C)c(=O)c3c(F)cccc23)cc1C (centres unmarked) [Example 59, 2-(tert-butoxy)-2-[4-(3,4-dimethylphenyl)-8-fluoro-2-methyl-1-oxo-1,2-dihydroisoquinolin-3-yl]acetic acid]	2180 nM	
Cc1c(-c2c(C(OC(C)(C)C)C(=O)O)n(C)c(=O)c3cc(OCc4cccnc4)ccc23)ccc2c1CCCO2 (centres unmarked) [Example 97, 2-(tert-butoxy)-2-[2-methyl-4-(5-methyl-3,4-dihydro-2H-1-benzopyran-6-yl)-1-oxo-7-(pyridin-3-ylmethoxy)-1,2-dihydroisoquinolin-3-yl]acetic acid]	370 nM	
Cn1c(C(OC(C)(C)C)C(=O)O)c(-c2ccc(OC3CCCCC3)cc2)c2ccccc2c1=O (centres unmarked) [Example 24, 2-(tert-butoxy)-2-{4-[4-(cyclohexyloxy)phenyl]-2-methyl-1-oxo-1,2-dihydroisoquinolin-3-yl}acetic acid]	25000 nM	
Cc1c(-c2c(C(OC(C)(C)C)C(=O)O)n(C)c(=O)c3cc(OCc4ccc(F)cc4F)ccc23)ccc2c1CCCO2 (centres unmarked) [Example 134, 2-(tert-butoxy)-2-{7-[(2,4-difluorophenyl)methoxy]-2-methyl-4-(5-methyl-3,4-dihydro-2H-1-benzopyran-6-yl)-1-oxo-1,2-dihydroisoquinolin-3-yl}acetic acid]	70 nM	
Cc1noc(C)c1-c1ccc2c(-c3cc(F)c4c(c3C)CCCO4)c([C@H](OC(C)(C)C)C(=O)O)n(C)c(=O)c2c1 (atropisomer, axis not shown; (M)) [Example 207, (2S)(M)-[(1,1-dimethylethyl)oxy][7-(3,5-dimethyl-4-isoxazolyl)-4-(8-fluoro-5-methyl-3,4-dihydro-2H-chromen-6-yl)-2-methyl-1-oxo-1,2-dihydro-3-isoquinolinyl]ethanoic acid]	80 nM	
COc1ccc(-c2c(C(OC(C)(C)C)C(=O)O)n(C)c(=O)c3ccccc23)cc1OC (centres unmarked) [Example 50, 2-(tert-butoxy)-2-[4-(3,4-dimethoxyphenyl)-2-methyl-1-oxo-1,2-dihydroisoquinolin-3-yl]acetic acid]	25600 nM	
Cn1c(C(OC(C)(C)C)C(=O)O)c(-c2ccc3c(c2)CCCO3)c2cc(F)ccc2c1=O (centres unmarked) [Example 25, 2-(tert-butoxy)-2-[4-(3,4-dihydro-2H-1-benzopyran-6-yl)-6-fluoro-2-methyl-1-oxo-1,2-dihydroisoquinolin-3-yl]acetic acid]	670 nM	
Cn1c(C(OC(C)(C)C)C(=O)O)c(-c2ccc(F)cc2)c2ccccc2c1=O (centres unmarked) [Example 9, 2-(tert-butoxy)-2-[4-(4-fluorophenyl)-2-methyl-1-oxo-1,2-dihydroisoquinolin-3-yl]acetic acid]	1330 nM	
Cc1c(-c2c([C@H](OC(C)(C)C)C(=O)O)n(C)c(=O)c3ccccc23)cc(F)c2c1CCCO2 (atropisomer, axis not shown; (M)) [Example 159, (2S)(M)-2-(tert-butoxy)-2-(4-(8-fluoro-5-methylchroman-6-yl)-2-methyl-1-oxo-1,2-dihydroisoquinolin-3-yl)acetic acid]		30 nM
Cc1c(-c2c([C@H](OC(C)(C)C)C(=O)O)n(C)c(=O)c3cc(-c4cnn(C)c4)ccc23)cc(F)c2c1CCCO2 (atropisomer, axis not shown; (M)) [Example 200, (2S)(M)-[(1,1-dimethylethyl)oxy][4-(8-fluoro-5-methyl-3,4-dihydro-2H-chromen-6-yl)-2-methyl-7-(1-methyl-1H-pyrazol-4-yl)-1-oxo-1,2-dihydro-3-isoquinolinyl]ethanoic acid]	110 nM	
Cc1ccc(-c2c(C(OC(C)(C)C)C(=O)O)n(C)c(=O)c3ccccc23)cc1 (centres unmarked) [Example 7, 2-(tert-butoxy)-2-[2-methyl-4-(4-methylphenyl)-1-oxo-1,2-dihydroisoquinolin-3-yl]acetic acid]	700 nM	
CCn1c(C(OC(C)(C)C)C(=O)O)c(-c2ccc(C)c(C)c2)c2ccccc2c1=O (centres unmarked) [Example 28, 2-(tert-butoxy)-2-[4-(3,4-dimethylphenyl)-2-ethyl-1-oxo-1,2-dihydroisoquinolin-3-yl]acetic acid]	6130 nM	
Cc1c(-c2c(C(OC(C)(C)C)C(=O)O)n(C)c(=O)c3ccccc23)ccc2c1CCCO2 (centres unmarked) [Example 19, 2-(tert-butoxy)-2-[2-methyl-4-(5-methyl-3,4-dihydro-2H-1-benzopyran-6-yl)-1-oxo-1,2-dihydroisoquinolin-3-yl]acetic acid]	410 nM	
Cc1cc(C)cc(-c2c(C(OC(C)(C)C)C(=O)O)n(C)c(=O)c3ccccc23)c1 (centres unmarked) [Example 10, 2-(tert-butoxy)-2-[4-(3,5-dimethylphenyl)-2-methyl-1-oxo-1,2-dihydroisoquinolin-3-yl]acetic acid]	10500 nM	
Cn1c(C(OC(C)(C)C)C(=O)O)c(-c2ccc3ccccc3c2)c2ccccc2c1=O (centres unmarked) [Example 64, 2-(tert-butoxy)-2-[2-methyl-4-(naphthalen-2-yl)-1-oxo-1,2-dihydroisoquinolin-3-yl]acetic acid]	8700 nM	
CC(C)Oc1ccc(-c2c(C(OC(C)(C)C)C(=O)O)n(C)c(=O)c3ccccc23)cc1 (centres unmarked) [Example 45, 2-(tert-butoxy)-2-{2-methyl-1-oxo-4-[4-(propan-2-yloxy)phenyl]-1,2-dihydroisoquinolin-3-yl}acetic acid]	50000 nM	
Cc1c(-c2c([C@H](OC(C)(C)C)C(=O)O)n(C)c(=O)c3cc(Nc4ccc(Cl)c(F)c4)ccc23)cc(F)c2c1CCCO2 (atropisomer, axis not shown; (M)) [Example 165, (2S)(M)-[7-[(4-chloro-3-fluorophenyl)amino]-4-(8-fluoro-5-methyl-3,4-dihydro-2H-chromen-6-yl)-2-methyl-1-oxo-1,2-dihydro-3-isoquinolinyl][(1,1-dimethylethyl)oxy]ethanoic acid]	100 nM	
Cc1ccc2c(=O)n(C)c(C(OC(C)(C)C)C(=O)O)c(-c3ccc(C)c(C)c3)c2c1 (centres unmarked) [Example 55, 2-(tert-butoxy)-2-[4-(3,4-dimethylphenyl)-2,6-dimethyl-1-oxo-1,2-dihydroisoquinolin-3-yl]acetic acid]	2560 nM	
Cc1ccc2c(-c3ccc4c(c3C)CCCO4)c([C@H](OC(C)(C)C)C(=O)O)n(C)c(=O)c2c1 [Example 115, (2S)-2-(tert-butoxy)-2-[2,7-dimethyl-4-(5-methyl-3,4-dihydro-2H-1-benzopyran-6-yl)-1-oxo-1,2-dihydroisoquinolin-3-yl]acetic acid]	20 nM	
Cc1c(-c2c([C@H](OC(C)(C)C)C(=O)O)n(C)c(=O)c3cc(Cc4ccccc4)ccc23)cc(F)c2c1CCCO2 (atropisomer, axis not shown; (M)) [Example 175, (2S)(M)-[(1,1-dimethylethyl)oxy][4-(8-fluoro-5-methyl-3,4-dihydro-2H-chromen-6-yl)-2-methyl-1-oxo-7-(phenylmethyl)-1,2-dihydro-3-isoquinolinyl]ethanoic acid]	70 nM	
Cc1ccc(N(C)c2c(C(OC(C)(C)C)C(=O)O)n(C)c(=O)c3ccccc23)cc1C (centres unmarked) [Example 212, 2-(tert-Butoxy)-2-(4-((3,4-dimethylphenyl)(methyl)amino)-2-methyl-1-oxo-1,2-dihydroisoquinolin-3-yl)acetic acid]	50000 nM	
Cn1c(C(OC(C)(C)C)C(=O)O)c(-c2ccc3c(c2Cl)NCCO3)c2ccccc2c1=O (centres unmarked) [Example 86, 2-(tert-butoxy)-2-[4-(5-chloro-3,4-dihydro-2H-1,4-benzoxazin-6-yl)-2-methyl-1-oxo-1,2-dihydroisoquinolin-3-yl]acetic acid]	4380 nM	
